Values quoted from earlier work in US20060128805A1, “Methods of treating erythropoietin-resistance” (priority 2004, published 2006).

Conditions: within the first hour of oral administration

Question: For Cc1c(O)c(=O)ccn1C [deferiprone, 1,2-dimethyl-3-hydroxy-pyrid-4-one], which “mean increase in plasma aluminum” value is on record?
Answer: about 90%
